Experiment: Storage stability of the tablets, solid form of the active ingredients by powder XRD
Type: physicochemical
Settings: after storage in Alu-Alu blister, three months at 40° C./75% RH
Protocol: The XRD measurements were performed using X-ray source with Cu K-alpha radiation, Empyrean system (or equivalent), PIXcel detector, divergence slit 0.25° fixed, anti-scattering slit 0.5°, soller slits 2×0.02 radians, Nickel filter to suppress back ground and Cu K-beta components, current 40 mA, voltage 45 kV, 2° - 40 ° 2θ, spinning 30 RPM, step size 0.013° with total measurement time 1 Hr at room temperature. 1. Grind about two tablets to fine powder using Agate mortar and pestle gently. Prepare the sample (approx. 350 mg) using PANalytical sample preparation kit by ‘Back loading technique’. The sample surface should be smooth and in parallel to sample holder surface. Clean the outer edges of the holder with tissue paper to avoid sample contaminations. 2. Place the prepared sample holder carefully on the sample stage of the XRD instrument and analyze as per the above XRD method conditions at room temperature.

Row | change of solid form of the active ingredient in the tablets, powder XRD | Structure (SMILES)
1 | no crystallization | CCCCC(=O)N(Cc1ccc(-c2ccccc2-c2nnn[n-]2)cc1)[C@H](C(=O)[O-])C(C)C.CCOC(=O)[C@H](C)C[C@@H](Cc1ccc(-c2ccccc2)cc1)NC(=O)CCC(=O)[O-].O.[Na+].[Na+].[Na+] [LCZ696]
2 | no polymorph conversion or amorphization | CCOC(=O)[C@H](C)C[C@@H](Cc1ccc(-c2ccccc2)cc1)NC(=O)CCC(=O)O [sacubitril monosodium]
3 | no crystallization | CCCCC(=O)N(Cc1ccc(-c2ccccc2-c2nnn[nH]2)cc1)[C@H](C(=O)O)C(C)C [valsartan disodium]

Reference: patent publication US20230346709A1, “TABLET CONTAINING VALSARTAN AND SACUBITRIL” (ALFRED E. TIEFENBACHER (GMBH & CO. KG), priority 2017, published 2023)
